Reference: patent publication US8846601B2, “Melanocortin receptor-specific peptides” (Palatin Technologies, Inc., priority 2009, dated 2014)
Bridge positions count the residues as written; N and C are the ends. Square brackets hold non-standard residues; d marks the D form. Peptide text beside a SMILES is read from it. * marks the point of attachment. Bn = c1ccc(C*)cc1

Target: T1, hMC4-R (Homo sapiens (Human), UniProt P32245)
Assay: Competitive inhibition binding assay using [I125]-NDP-α-MSH, hMC4-R membranes
Conditions: averaged; [I125]-NDP-α-MSH (values not marked *); read-out: MC4-R Ki
Experimental: A competitive inhibition binding assay is performed using membrane homogenates prepared from HEK-293 cells that express recombinant hMC4-R, hMC3-R, or hMC5-R, and from B-16 mouse melanoma cells (containing endogenous MC1-R). In some instances, HEK-293 cells that express recombinant hMC1-R were employed. In the examples that follow, all MC3-R, MC4-R and MC5-R values are for human recombinant receptors. […] Membrane homogenates were incubated with 0.2 nM (for hMC4-R) 0.4 nM (for MC3-R and MC5-R) or 0.1 nM (for mouse B16 MC1-R or hMC1-R) [I^125]-NDP-α-MSH (Perkin Elmer) and increasing concentrations of test peptides of the present invention in buffer containing 25 mM HEPES buffer (pH 7.5) with 100 mM NaCl, 2 mM CaCl2, 2 mM MgCl2, 0.3 mM 1,10-phenanthroline, and 0.2% bovine serum albumin. After incubation for 60 minutes at 37° C., the assay mixture was filtered and the membranes washed three times with ice-cold buffer. Filters were dried and counted in a gamma counter for bound radioactivity. […] Maximal specific binding (100%) was defined as the difference in radioactivity (cpm) bound to cell membranes in the absence and presence of 1 μM NDP-α-MSH. […] Each assay was conducted in triplicate and the actual mean values are described, with results less than 0% reported as 0%. Ki values for test peptides of the present invention were determined using Graph-Pad Prism® curve-fitting software.

T1 sequence (P32245 whole entry): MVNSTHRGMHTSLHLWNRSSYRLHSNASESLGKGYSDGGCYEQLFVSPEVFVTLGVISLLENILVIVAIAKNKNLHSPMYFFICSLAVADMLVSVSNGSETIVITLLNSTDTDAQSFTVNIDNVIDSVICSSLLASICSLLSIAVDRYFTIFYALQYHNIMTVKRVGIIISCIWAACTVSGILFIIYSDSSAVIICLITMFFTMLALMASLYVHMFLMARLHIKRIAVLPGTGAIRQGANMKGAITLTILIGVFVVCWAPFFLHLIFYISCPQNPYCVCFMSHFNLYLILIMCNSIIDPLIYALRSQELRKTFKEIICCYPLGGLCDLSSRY

SMILES	Ki
CC(=O)N[C@@H](CCCNC(=N)N)C(=O)N[C@H]1CCCC(=O)NCC[C@@H](C(=O)O)NC(=O)[C@H](Cc2c[nH]c3ccccc23)NC(=O)[C@H](CCCNC(=N)N)NC(=O)[C@@H](Cc2ccccc2)NC(=O)[C@H](CCN)NC1=O [compound 144, Ac-Arg-cyclo(hGlu-Dab- D-Phe-Arg-Trp-Dab)- OH]	45 nM
CC(=O)N[C@@H](CCCNC(=N)N)C(=O)N[C@H]1CC(=O)NCCCC[C@@H](C(N)=O)NC(=O)[C@H](Cc2c[nH]c3ccccc23)NC(=O)[C@H](CCCNC(=N)N)NC(=O)[C@@H](Cc2cccc3ccccc23)NC(=O)[C@H](Cc2c[nH]cn2)NC1=O [compound 19, Ac-Arg-cyclo(Asp-His- D-Nal 1-Arg-Trp-Lys)- NH2]	3 nM
N=C(N)NCCC[C@H](NC(=O)CC1CCCCC1)C(=O)N[C@H]1CC(=O)NCCCC[C@@H](C(N)=O)NC(=O)[C@H](Cc2c[nH]c3ccccc23)NC(=O)[C@H](CCCNC(=N)N)NC(=O)[C@@H](Cc2ccccc2)NC(=O)[C@H](CCN)NC1=O [compound 139, Cyclohexylacetyl-Arg- cyclo(Asp-Dab-D-Phe- Arg-Trp-Lys)-NH2]	1 nM
CC(=O)N[C@@H](CCCNC(=N)N)C(=O)N[C@H]1CCCCNC(=O)C[C@@H](C(N)=O)NC(=O)[C@H](Cc2c[nH]c3ccccc23)NC(=O)[C@H](CCCNC(=N)N)NC(=O)[C@@H](Cc2ccccc2)NC(=O)[C@H](CCC(N)=O)NC1=O [compound 151, Ac-Arg-cyclo(Lys-Gln- D-Phe-Arg-Trp-Asp)- NH2] (HELM PEPTIDE1{[ac].R.K.Q.[dF].R.W.D.[am]}$PEPTIDE1,PEPTIDE1,3:R3-8:R3$$$V2.0)	4 nM
CC(=O)N[C@@H](CCCNC(=N)N)C(=O)N[C@H]1CC(=O)NCCCC[C@@H](C(=O)O)NC(=O)[C@H](Cc2c[nH]c3ccccc23)NC(=O)[C@H](CCCNC(=N)N)NC(=O)[C@@H](Cc2ccccc2)NC(=O)[C@@H]2C[C@@H](Cc3ccccc3)CN2C1=O [compound 55, Ac-Arg-cyclo(Asp- Pro(Bn)-D-Phe-Arg- Trp-Lys)-OH]	12 nM
CC(=O)N[C@@H](CCCN)C(=O)N[C@H]1CCCNC(=O)CC[C@@H](C(N)=O)NC(=O)[C@H](Cc2c[nH]c3ccccc23)NC(=O)[C@H](CCCNC(=N)N)NC(=O)[C@@H](Cc2ccccc2)NC(=O)[C@H](CC(N)=O)NC1=O [compound 158, Ac-Orn-cyclo(Orn-Asn- D-Phe-Arg-Trp-Glu)- NH2] (HELM PEPTIDE1{[ac].[Orn].[Orn].N.[dF].R.W.E.[am]}$PEPTIDE1,PEPTIDE1,3:R3-8:R3$$$V2.0)	50 nM
CC(=O)N[C@@H](CCCNC(=N)N)C(=O)N[C@H]1CC(=O)NCCCC[C@@H](C(N)=O)NC(=O)[C@H](Cc2c[nH]c3ccccc23)NC(=O)[C@H](CCCNC(=N)N)NC(=O)[C@@H](Cc2ccccc2)NC(=O)[C@@H]2C[C@@H](O)CN2C1=O [compound 79, Ac-Arg-cyclo(Asp-Hyp- D-Phe-Arg-Trp-Lys)- NH2]	4 nM
CC(=O)N[C@@H](CCCNC(=N)N)C(=O)N[C@H]1CC(=O)NCCCC[C@@H](C(N)=O)NC(=O)[C@H](Cc2c[nH]c3ccccc23)NC(=O)[C@H](CCCNC(=N)N)NC(=O)[C@@H](Cc2ccccc2)NC(=O)[C@H]([C@@H](C)OCc2ccccc2)NC1=O [compound 14, Ac-Arg-cyclo(Asp- Thr(Bzl)-D-Phe-Arg- Trp-Lys)-NH2] (Ac-RDT(Bn)[dF]RWK-NH2; lactam 2-7)	1 nM
CC(=O)N[C@@H](CCC(N)=O)C(=O)N[C@H]1CC(=O)NCCCC[C@@H](C(N)=O)NC(=O)[C@H](Cc2c[nH]c3ccccc23)NC(=O)[C@H](CCCNC(=N)N)NC(=O)[C@@H](Cc2ccccc2)NC(=O)[C@H](CCN)NC1=O [compound 142, Ac-Gln-cyclo(Asp-Dab- D-Phe-Arg-Trp-Lys)- NH2] (HELM PEPTIDE1{[ac].Q.D.[Dab].[dF].R.W.K.[am]}$PEPTIDE1,PEPTIDE1,3:R3-8:R3$$$V2.0)	15 nM
N=C(N)NCCC[C@H](NC(=O)Cc1ccccc1)C(=O)N[C@H]1CC(=O)NCCCC[C@@H](C(N)=O)NC(=O)[C@H](Cc2c[nH]c3ccccc23)NC(=O)[C@H](CCCNC(=N)N)NC(=O)[C@@H](Cc2ccccc2)NC(=O)[C@H](CCN)NC1=O [compound 140, Phenylacetyl-Arg- cyclo(Asp-Dab-D-Phe- Arg-Trp-Lys)-NH2]	2 nM

Second part, the molecule after the results:

Ki	SMILES
1450 nM	CC(=O)N[C@@H](CCCNC(=N)N)C(=O)N[C@H]1CC(=O)NCCCC[C@@H](C(N)=O)NC(=O)[C@H](Cc2c[nH]c3ccccc23)NC(=O)[C@H](CCCNC(=N)N)NC(=O)[C@@H](Cc2ccccc2)NC(=O)[C@H](CO)NC1=O [compound 117, Ac-Arg-cyclo(Asp-Ser- D-Phe-Cit-Trp-Lys)-NH2]
35 nM	CC(=O)N[C@@H](CCCNC(=N)N)C(=O)N[C@H]1CCCCNC(=O)C[C@@H](C(=O)O)NC(=O)[C@H](Cc2c[nH]c3ccccc23)NC(=O)[C@H](CCCNC(=N)N)NC(=O)[C@@H](Cc2ccccc2)NC(=O)[C@H](CCN)NC1=O [compound 131, Ac-Arg-cyclo(Lys-Dab- D-Phe-Arg-Trp-Asp)- OH] (HELM PEPTIDE1{[ac].R.K.[Dab].[dF].R.W.D}$PEPTIDE1,PEPTIDE1,3:R3-8:R3$$$V2.0)
6 nM	N=C(N)NCCC[C@@H]1NC(=O)[C@@H](Cc2ccccc2)NC(=O)[C@H](Cc2c[nH]cn2)NC(=O)[C@@H](NC(=O)[C@@H](N)CCCNC(=N)N)CCCNC(=O)CC[C@@H](C(N)=O)NC(=O)[C@H](Cc2c[nH]c3ccccc23)NC1=O [compound 99, Arg-cyclo(Orn-His-D- Phe-Arg-Trp-Glu)-NH2] (HELM PEPTIDE1{R.[Orn].H.[dF].R.W.E.[am]}$PEPTIDE1,PEPTIDE1,2:R3-7:R3$$$V2.0)

Target: T1, hMC4-R
Assay: Competitive binding assay using Eu-NDP-α-MSH (TRF), hMC4-R membranes
Conditions: averaged; Eu-NDP-α-MSH (values marked *); read-out: MC4-R Ki
Experimental: Alternatively, a competitive inhibition binding assay was performed employing Eu-NDP-α-MSH (PerkinElmer Life Sciences catalog No. AD0225) with determination by time-resolved fluorometry (TRF) of the lanthanide chelate. […] After incubation for 90 minutes at 37° C., the reaction was stopped by filtration over AcroWell 96-well filter plates (Pall Life Sciences). The filter plates were washed 4 times with 200 μL of ice-cold phosphate-buffered saline. DELFIA Enhancement solution (PerkinElmer Life Sciences) was added to each well. […] Each assay was conducted in duplicate and mean values were utilized. Ki values were determined by curve-fitting with Graph-Pad Prism® software using a one-site fixed-slope competition binding model.

SMILES	Ki
CC(=O)N[C@@H](CCCNC(=N)N)C(=O)N[C@H]1CC(=O)NCCCC[C@@H](C(=O)O)NC(=O)[C@H](Cc2c[nH]c3ccccc23)NC(=O)[C@H](CCCNC(=N)N)NC(=O)[C@@H](Cc2ccccc2)NC(=O)[C@H](CCCNC(=N)N)NC1=O [compound 73, Ac-Arg-cyclo(Asp-Arg- D-Phe-Arg-Trp-Lys)-OH]	60 nM
CC[C@H](C)[C@@H]1NC(=O)[C@@H](NC(=O)[C@H](CCCNC(=N)N)NC(C)=O)CC(=O)NCCCC[C@@H](C(N)=O)NC(=O)[C@H](Cc2c[nH]c3ccccc23)NC(=O)[C@H](CCCNC(=N)N)NC(=O)[C@@H](Cc2ccccc2)NC1=O [compound 34, Ac-Arg-cyclo(Asp-Ile-D- Phe-Arg-Trp-Lys)-NH2] (HELM PEPTIDE1{[ac].R.D.I.[dF].R.W.K.[am]}$PEPTIDE1,PEPTIDE1,3:R3-8:R3$$$V2.0)	19 nM

Second part, the molecule after the results:

Ki	SMILES
113 nM	CC(=O)N[C@@H](CCCNC(=N)N)C(=O)N[C@H]1CCC(=O)NCCC[C@@H](C(=O)O)NC(=O)[C@H](Cc2c[nH]c3ccccc23)NC(=O)[C@H](CCCNC(=N)N)NC(=O)[C@@H](Cc2ccccc2)NC(=O)[C@H](CCCCN)NC1=O [compound 89, Ac-Arg-cyclo(Glu-Lys- D-Phe-Arg-Trp-Orn)- OH] (HELM PEPTIDE1{[ac].R.E.K.[dF].R.W.[Orn]}$PEPTIDE1,PEPTIDE1,3:R3-8:R3$$$V2.0)
40 nM	CC(=O)N[C@H](CCCNC(=N)N)C(=O)N[C@H]1CCC(=O)NCCC[C@@H](C(=O)O)NC(=O)[C@H](Cc2c[nH]c3ccccc23)NC(=O)[C@H](CCCNC(=N)N)NC(=O)[C@@H](Cc2ccccc2)NC(=O)[C@H](Cc2c[nH]cn2)NC1=O [compound 85, Ac-D-Arg-cyclo(Glu- His-D-Phe-Arg-Trp- Orn)-OH] (HELM PEPTIDE1{[ac].[dR].E.H.[dF].R.W.[Orn]}$PEPTIDE1,PEPTIDE1,3:R3-8:R3$$$V2.0)
19 nM	CC(=O)N[C@@H](CCCNC(=N)N)C(=O)N[C@H]1CC(=O)NCCCC[C@@H](C(N)=O)NC(=O)[C@H](Cc2c[nH]c3ccccc23)NC(=O)[C@H](CCCNC(=N)N)NC(=O)[C@@H](Cc2ccccc2)NC(=O)[C@@H]2C[C@@H](Cc3cccc(Cl)c3)CN2C1=O [compound 124, Ac-Arg-cyclo(Asp- Pro(4R-3-Cl-Bzl)-D- Phe-Arg-Trp-Lys)-NH2]
533 nM	CC(=O)N[C@@H](CCCNC(=N)N)C(=O)N[C@H]1CC(=O)NCCCC[C@@H](C(N)=O)NC(=O)[C@H](Cc2c[nH]c3ccccc23)NC(=O)[C@H](CCCCN)NC(=O)[C@@H](Cc2ccccc2)NC(=O)[C@H](Cc2c[nH]cn2)NC1=O [compound 6, Ac-Arg-cyclo(Asp-His- D-Phe-Lys-Trp-Lys)- NH2] (HELM PEPTIDE1{[ac].R.D.H.[dF].K.W.K.[am]}$PEPTIDE1,PEPTIDE1,3:R3-8:R3$$$V2.0)
145 nM	CC(=O)N[C@@H](CCCNC(=N)N)C(=O)N[C@H]1CC(=O)NCCCC[C@@H](C(N)=O)NC(=O)[C@H](Cc2c[nH]c3ccccc23)NC(=O)[C@H](CCCNC(=N)N)NC(=O)[C@@H](Cc2ccccc2)NC(=O)[C@H](CNC(=O)[C@H]2CCNC2)NC1=O [compound 118, Ac-Arg-cyclo(Asp- Dap(betaPro)-D-Ph- Arg-Trp-Lys)-NH2]
